Results as given in patent US20260042773A1, “NOVEL CAMPTOTHECIN ANALOGS AND IMMUNOCONJUGATES THEREOF” (priority 2022, published 2026).

What was measured:
SU-DHL-1 cells = experiment: Cell viability (Cell Titer Glo 2.0) in SU-DHL-1 cells; format: cell-based; conditions: Homo sapiens, 120 hours at 37° C., Cell Titer Glo 2.0, normalized to non-treated controls
Protocol: (§1) SU-DHL-1 and SK-BR-3 cells (ATCC, Manassas, VA, USA) were seeded into 384-well white-walled culture plates and allowed to adhere for 2-4 hours. Cells were then treated at least in duplicate by addition of 5-fold serially diluted test articles prepared at 2× final concentration and incubated at 37° C. for 120 hours. Cell viability following treatment was determined by Cell Titer Glo 2.0 Assay (Promega, Madison, WI, USA) and normalized to non-treated controls. Dose-response relationships were analyzed using GraphPad Prism (La Jolla, C A, USA), and IC50 values were derived from non-linear regression analyses using a 4-parameter logistic equation.

SK-BR-3 cells = experiment: Cell viability (Cell Titer Glo 2.0) in SK-BR-3 cells; format: cell-based; conditions: Homo sapiens, 120 hours at 37° C., Cell Titer Glo 2.0, normalized to non-treated controls
Protocol: as §1

| SMILES | IC50 (SU-DHL-1 cells) [nM] | IC50 (SK-BR-3 cells) [nM] |
| --- | --- | --- |
| CC[C@@]1(O)C(=O)OCc2c1cc1n(c2=O)Cc2c-1nc1ccc(N)cc1c2CN1CCOCC1 [Compound 1] | < 5 | 5 to 20 |
| CC[C@@]1(O)C(=O)OCc2c1cc1n(c2=O)Cc2c-1nc1ccc(N)cc1c2N(C)CCN(C)C [Compound 17] | > 20 | > 20 |
| CC[C@@]1(O)C(=O)OCc2c1cc1n(c2=O)Cc2c-1nc1ccc(N)cc1c2N1C[C@H]2CC[C@@H](C1)O2 [Compound 18] | < 5 | < 5 |
| CC[C@@]1(O)C(=O)OCc2c1cc1n(c2=O)Cc2c-1nc1ccc(N)cc1c2CO [Compound 10] | 5 to 20 | 5 to 20 |
| CC[C@@]1(O)C(=O)OCc2c1cc1n(c2=O)Cc2c-1nc1ccc(N)cc1c2N(C)CCOC [Compound 16] | < 5 | 5 to 20 |
| CC[C@@]1(O)C(=O)OCc2c1cc1n(c2=O)Cc2c-1nc1ccc(N)cc1c2N(C)C [Compound 14] | 5 to 20 | 5 to 20 |
| CC[C@@]1(O)C(=O)OCc2c1cc1n(c2=O)Cc2c-1nc1ccc(N)cc1c2CN1CCS(=O)(=O)CC1 [Compound 3] | > 20 | > 20 |
| CC[C@@]1(O)C(=O)OCc2c1cc1n(c2=O)Cc2c-1nc1ccc(N)cc1c2COC [Compound 4] | < 5 | < 5 |
| CC[C@@]1(O)C(=O)OCc2c1cc1n(c2=O)Cc2c-1nc1ccc(N)cc1c2N1CCSCC1 [Compound 23] | < 5 | < 5 |
| CC[C@@]1(O)C(=O)OCc2c1cc1n(c2=O)Cc2c-1nc1ccc(N)cc1c2N1CCC1 [Compound 8] | 5 to 20 | 5 to 20 |
| CC[C@@]1(O)C(=O)OCc2c1cc1n(c2=O)Cc2c-1nc1ccc(N)cc1c2N1CCCCC1 [Compound 12] | < 5 | < 5 |
| CC[C@@]1(O)C(=O)OCc2c1cc1n(c2=O)Cc2c-1nc1ccc(N)cc1c2N1CC2(CCOC2)C1 [Compound 11] | < 5 | < 5 |
| CC[C@@]1(O)C(=O)OCc2c1cc1n(c2=O)Cc2c-1nc1ccc(N)cc1c2N1CCOCC1 [Compound 5] | < 5 | < 5 |
| CC[C@@]1(O)C(=O)OCc2c1cc1n(c2=O)Cc2c-1nc1ccc(N)cc1c2N1CC2(CCOCC2)C1 [Compound 9] | < 5 | 5 to 20 |
| CC[C@@]1(O)C(=O)OCc2c1cc1n(c2=O)Cc2c-1nc1ccc(N)cc1c2N1CCCC1 [Compound 6] | 5 to 20 | 5 to 20 |
| CC[C@@]1(O)C(=O)OCc2c1cc1n(c2=O)Cc2c-1nc1ccc(N)cc1c2N(C)CCO [Compound 20] | > 20 | > 20 |
| CC[C@@]1(O)C(=O)OCc2c1cc1n(c2=O)Cc2c-1nc1ccc(N)cc1c2NC [Compound 19] | > 20 | 5 to 20 |
| CC[C@@]1(O)C(=O)OCc2c1cc1n(c2=O)Cc2c-1nc1ccc(N)cc1c2N1CCN(S(C)(=O)=O)CC1 [Compound 15] | 5 to 20 | > 20 |
| CC[C@@]1(O)C(=O)OCc2c1cc1n(c2=O)Cc2c-1nc1ccc(N)cc1c2N [Compound 21] | > 20 | 5 to 20 |
| CC[C@@]1(O)C(=O)OCc2c1cc1n(c2=O)Cc2c-1nc1ccc(N)cc1c2CN1CCN(C)CC1 [Compound 2] | 5 to 20 | > 20 |
| CC[C@@]1(O)C(=O)OCc2c1cc1n(c2=O)Cc2c-1nc1ccc(N)cc1c2N1CC2(COC2)C1 [Compound 7] | 5 to 20 | 5 to 20 |
